Data as given in patent publication US9133235B2, “Macrocyclic antagonists of the motilin receptor for treatment of gastrointestinal dysmotility disorders” (Ocera Therapeutics, Inc., priority 2006, dated 2015).

Legend:
[1] = molecular target: T1, human motilin receptor (Homo sapiens, UniProt O43193); test: Aequorin functional assay (motilin receptor); assay type: cell-based; design: host or cells: CHO-K1 cells co-expressing Gα16 and mitochondrially targeted Aequorin; details: for IC50: functional activity, antagonist testing vs motilin 0.5 nM (EC80)
T1 sequence (O43193 whole entry): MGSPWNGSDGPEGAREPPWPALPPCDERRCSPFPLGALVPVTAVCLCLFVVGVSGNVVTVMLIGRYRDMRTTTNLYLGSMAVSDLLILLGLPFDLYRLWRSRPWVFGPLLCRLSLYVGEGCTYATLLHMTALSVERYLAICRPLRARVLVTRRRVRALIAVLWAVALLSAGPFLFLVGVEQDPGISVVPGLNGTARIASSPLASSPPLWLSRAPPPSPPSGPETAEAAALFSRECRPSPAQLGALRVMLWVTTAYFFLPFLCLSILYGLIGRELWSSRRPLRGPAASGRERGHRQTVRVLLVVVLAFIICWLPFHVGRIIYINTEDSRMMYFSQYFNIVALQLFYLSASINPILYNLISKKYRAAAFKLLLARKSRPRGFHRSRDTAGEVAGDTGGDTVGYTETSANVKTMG
Procedure: B. Aequorin Functional Assay (Motilin Receptor)
The evaluation of compounds of the invention for functional activity can be conducted according to literature methods or as described below. (Carreras, C. W.; Siani, M. A.; Santi, D. V.; Dillon, S. B. Anal. Biochem. 2002, 300, 146-151.)
• Membranes were prepared using AequoScreen™ (EUROSCREEN, Belgium) cell lines expressing the human motilin receptor (cell line ES-380-A; receptor accession #AF034632). This cell line is constructed by transfection of the human motilin receptor into CHO-K1 cells co-expressing Gα16 and the mitochondrially targeted Aequorin (Ref. #ES-WT-A5). • Motilin (Bachem, #H-4385) • Assay buffer: DMEM-F12 (Dulbeccoe's Modified Eagles Medium) with 15 mM HEPES and 0.1% BSA (pH 7.0) • Coelenterazine (Molecular Probes™, Leiden, The Netherlands) Final Test Concentrations (N=5) for Compounds: • 10, 3.16, 1.0, 0.316, 0.10 μM. Compound Handling:
Compounds were provided as dry films at a quantity of approximately 1.2 μmol in pre-formatted 96-well plates. Compounds were dissolved in 100% DMSO at a concentration of 10 mM and stored at −20° C. until further use. Daughter plates were prepared at a concentration of 500 μM in 30% DMSO with 0.1% BSA and stored at −20° C. until testing. On the test day, compounds were allowed to thaw at room temperature and than diluted in assay buffer according to the desired test concentrations. Under these conditions, the maximum final DMSO concentration in the assay was 0.6%.
Cells are collected from culture plates with Ca^2+ and Mg^2+-free phosphate buffered saline (PBS) supplemented with 5 mM EDTA, pelleted for 2 minutes at 1000×g, resuspended in assay buffer (see above) at a density of 5×10^6 cells/mL and incubated overnight in the presence of 5 μM coelenterazine. After loading, cells were diluted with assay buffer to a concentration of 5×10^5 cells/mL.
For agonist testing, 50 μL of the cell suspension was mixed with 50 μL of the appropriate concentration of test compound or motilin (reference agonist) in 96-well plates (duplicate samples). The emission of light resulting from receptor activation was recorded using the Functional Drug Screening System 6000 ‘FDSS 6000’ (Hamamatsu Photonics K. K., Japan).
For antagonist testing, an approximate EC80 concentration of motilin (i.e. 0.5 nM; 100 μL) was injected onto the cell suspension containing the test compounds (duplicate samples) 15-30 minutes after the end of agonist testing and the consequent emission of light resulting from receptor activation was measured as described in the paragraph above.
Results are expressed as Relative Light Units (RLU). Concentration response curves were analyzed using GraphPad™ Prism® (GraphPad Software, San Diego, Calif.) by non-linear regression analysis (sigmoidal dose-response) based on the equation E=Emax/(1+EC50/C)n where E is the measured RLU value at a given agonist concentration (C), Emax is the maximal response, EC50 is the concentration producing 50% stimulation and n is the slope index. For agonist testing, results for each concentration of test compound were expressed as percent activation relative to the signal induced by motilin at a concentration equal to the EC80 (i.e. 0.5 nM). For antagonist testing, results for each concentration of test compound were expressed as percent inhibition relative to the signal induced by motilin at a concentration equal to the EC80 (i.e. 0.5 nM).

[2] = molecular target: T1, human motilin receptor; test: Competitive radioligand binding assay (motilin receptor); design: purchased PerkinElmer (SignalScreen) 6110544; host or cells: CHO cells, stably transfected; membranes; details: [125I]-motilin competition, membranes of CHO cells with human motilin receptor; read-out: Ki
Procedure: A. Competitive Radioligand Binding Assay (Motilin Receptor)
The competitive binding assay at the human motilin receptor was carried out analogously to assays described in the literature.
• Membranes were prepared from CHO cells stably transfected with the human motilin receptor and utilized at a quantity of 1.5 μg/assay point. [PerkinElmer™ SignalScreen Product #6110544] • [^125I]-Motilin (PerkinElmer, #NEX-378); final concentration: 0.04-0.06 nM • Motilin (Bachem™, #H-4385); final concentration: 1 μM • Multiscreen Harvest plates-GF/B (Millipore™, #MAHFB1H60) • Deep-well polypropylene titer plate (Beckman Coulter™, #267006) • TopSeal-A (PerkinElmer, #6005185) • Bottom seal (Millipore, #MATAH0P00) • MicroScint-0 (PerkinElmer, #6013611) • Binding Buffer: 50 mM Tris-HCl (pH 7.4), 10 mM MgCl2, 1 mM EDTA, 0.1% BSA Assay Volumes: • 150 μL of membranes diluted in binding buffer • 10 μL of compound diluted in binding buffer • 10 μL of radioligand ([^125I]-Motilin) diluted in binding buffer Final Test Concentrations (N=11) for Compounds: • 10, 5.0, 2.0, 1.0, 0.50, 0.20, 0.10, 0.050, 0.020, 0.010, 0.0050 μM. Compound Handling:
Compounds were provided frozen on dry ice at a stock concentration of 10 mM diluted in 100% DMSO and stored at −20° C. until the day of testing. On the test day, compounds were allowed to thaw at room temperature and than diluted in assay buffer according to the desired test concentrations. Under these conditions, the maximum final DMSO concentration in the assay was 0.5%.
In deep-well plates, diluted cell membranes (1.5 μg/mL) are combined with 10 μL of either binding buffer (total binding, N=5), 1 μM motilin (non-specific binding, N=3) or the appropriate concentration of test compound. The reaction is initiated by addition of 10 μL of [^125I]-motilin (final conc. 0.04-0.06 nM) to each well. Plates are sealed with TopSeal-A, vortexed gently and incubated at room temperature for 2 hours. The reaction is arrested by filtering samples through pre-soaked (0.3% polyethyleneimine, 2 h) Multiscreen Harvest plates using a Tomtec Harvester, washed 9 times with 500 μL of cold 50 mM Tris-HCl (pH 7.4), and than plates are air-dried in a fumehood for 30 minutes. A bottom seal is applied to the plates prior to the addition of 25 μL of MicroScint-0 to each well. Plates are than sealed with TopSeal-A and counted for 30 sec per well on a TopCount Microplate Scintillation and Luminescence Counter (PerkinElmer) where results are expressed as counts per minute (cpm).
Data are analyzed by GraphPad™ Prism® (GraphPad Software, San Diego, Calif.) using a variable slope non-linear regression analysis.
[formula] where total and non-specific binding represent the cpm obtained in the absence or presence of 1 μM motilin, respectively.

Row | IC50 [1] [µM] | Ki [2] [µM] | Compound | approximate EC80 concentration ([1]; reference agonist) [µM]
1 | ≤ 0.1 | – | CC(C)[C@H]1NC(=O)[C@@H](Cc2cccc(C(F)(F)F)c2)NCCOc2ccccc2CCCNC(=O)[C@H](CNC(=N)N)NC1=O [Compound 503] | –
2 | ≤ 0.01 | ≤ 0.1 | CC(C)[C@H]1NC(=O)[C@@H](Cc2cccc(F)c2)N[C@@H](C)COc2ccccc2CCCNC(=O)[C@H](CN2CCCC2)NC1=O [Compound 533] | –
3 | ≤ 0.1 | ≤ 0.1 | Cc1cnnn1C[C@@H]1NC(=O)[C@@H](C(C)C)NC(=O)[C@@H](Cc2cccc(F)c2)N[C@@H](C)COc2ccccc2CCCNC1=O [Compound 536] | –
4 | ≤ 0.001 | ≤ 0.01 | CC(C)[C@H]1NC(=O)[C@@H](Cc2cccc(C(F)(F)F)c2)NCCOc2ccccc2CCCNC(=O)[C@H](CN=[N+]=[N-])NC1=O [Compound 537] | –
5 | ≤ 0.001 | ≤ 0.01 | CC(C)[C@H]1NC(=O)[C@@H](Cc2cccc(F)c2)N[C@@H](C)COc2ccccc2CCCNC(=O)[C@H](CN=[N+]=[N-])NC1=O [Compound 538] | –
6 | ≤ 0.001 | ≤ 0.01 | CC(C)[C@H]1NC(=O)[C@@H](Cc2cccc(F)c2)N[C@@H](C)COc2ccccc2C[C@H](C)CNC(=O)[C@H](CN)NC1=O [Compound 544] | –
7 | ≤ 0.01 | ≤ 0.01 | CNC[C@@H]1NC(=O)[C@@H](C(C)C)NC(=O)[C@@H](Cc2cccc(F)c2)N[C@@H](C)COc2ccccc2CCCNC1=O [Compound 548] | –
8 | ≤ 0.001 | ≤ 0.01 | CC(C)[C@H]1NC(=O)[C@@H](Cc2cccc(F)c2)N[C@@H](C)COc2ccccc2C[C@H](C)CNC(=O)[C@H](CNc2ncccn2)NC1=O [Compound 550] | –

The next lines start with the compound.

Row | Compound | IC50 [1] [µM] | Ki [2] [µM] | approximate EC80 concentration ([1]; reference agonist) [µM]
9 | CC(C)[C@H]1NC(=O)[C@@H](Cc2cccc(C(F)(F)F)c2)NCCOc2ccccc2C[C@@H](C)CNC(=O)[C@H](CNC(=N)N)NC1=O [Compound 504] | ≤ 0.1 | ≤ 0.1 | –
10 | CC(C)[C@H]1NC(=O)[C@@H](Cc2cccc(C(F)(F)F)c2)NCCOc2ccccc2C[C@H](C)CNC(=O)[C@H](CNC(=N)N)NC1=O [Compound 505] | ≤ 0.01 | ≤ 0.01 | –
11 | CCC[C@@H]1NC(=O)[C@@H](C(C)C)NC(=O)[C@@H](Cc2cccc(F)c2)N[C@H](C)COc2ccccc2CCCNC1=O [Compound 513] | ≤ 0.1 | ≤ 0.1 | –
12 | CC(C)[C@H]1NC(=O)[C@@H](Cc2cccc(Cl)c2)N[C@@H](C)COc2ccccc2CCCNC(=O)[C@H](CNC(=N)N)NC1=O [Compound 516] | ≤ 0.1 | – | –
13 | CC(C)[C@H]1NC(=O)[C@@H](Cc2cccc(F)c2)N[C@@H](C)COc2ccccc2CCCNC(=O)[C@H](CN(C)C)NC1=O [Compound 529] | ≤ 0.01 | ≤ 0.01 | –
14 | CC(C)[C@H]1NC(=O)[C@@H](Cc2cccc(C(F)(F)F)c2)NCCOc2ccccc2CCCNC(=O)[C@H](CN2CCCC2)NC1=O [Compound 532] | ≤ 0.1 | ≤ 0.01 | –
15 | CC(C)[C@H]1NC(=O)[C@@H](Cc2cccc(F)c2)N[C@@H](C)COc2ccccc2CCCNC(=O)[C@H](CN2CCOCC2)NC1=O [Compound 534] | ≤ 0.01 | ≤ 0.1 | –
16 | CC(C)[C@H]1NC(=O)[C@@H](Cc2cccc(F)c2)N[C@@H](C)COc2ccccc2CCCNC(=O)[C@H](CNc2ncccn2)NC1=O [Compound 535] | ≤ 0.01 | ≤ 0.1 | –
17 | CC(C)[C@H]1NC(=O)[C@@H](Cc2cccc(C(F)(F)F)c2)NCCOc2ccccc2CCCNC(=O)[C@H](Cn2cccc2)NC1=O [Compound 539] | ≤ 0.001 | ≤ 0.01 | –
18 | CC(C)[C@H]1NC(=O)[C@@H](Cc2cccc(F)c2)N[C@@H](C)COc2ccccc2CCCNC(=O)[C@H](Cn2cccc2)NC1=O [Compound 540] | ≤ 0.001 | ≤ 0.01 | –
19 | CC(C)[C@H]1NC(=O)[C@@H](Cc2cccc(C(F)(F)F)c2)NCCOc2ccccc2CCCNC(=O)[C@H](CN)NC1=O [Compound 542] | ≤ 0.01 | ≤ 0.1 | –
20 | CC(C)[C@H]1NC(=O)[C@@H](Cc2cccc(F)c2)N[C@@H](C)COc2ccccc2CCCNC(=O)[C@H](CN)NC1=O [Compound 543] | ≤ 0.1 | ≤ 0.1 | –
21 | CC(C)[C@H]1NC(=O)[C@@H](Cc2cccc(F)c2)N[C@@H](C)COc2ccccc2C[C@H](C)CNC(=O)[C@H](CN=[N+]=[N-])NC1=O [Compound 545] | ≤ 0.001 | ≤ 0.01 | –
22 | CNC[C@@H]1NC(=O)[C@@H](C(C)C)NC(=O)[C@@H](Cc2cccc(F)c2)N[C@@H](C)COc2ccccc2C[C@H](C)CNC1=O [Compound 546] | ≤ 0.001 | ≤ 0.01 | –
23 | CNC[C@@H]1NC(=O)[C@@H](C(C)C)NC(=O)[C@@H](Cc2cccc(C(F)(F)F)c2)NCCOc2ccccc2CCCNC1=O [Compound 547] | ≤ 0.01 | ≤ 0.01 | –
24 | C[C@H]1COc2ccccc2CCCNC(=O)[C@H](CC2CC2)NC(=O)[C@@H](C2CC2)NC(=O)[C@@H](Cc2cccc(F)c2)N1 [Compound 555] | ≤ 0.001 | ≤ 0.01 | –
25 | CC[C@H](C)[C@H](NC(=O)[C@@H]1CCCN1C(=O)[C@@H](NC(=O)[C@@H](N)Cc1ccccc1)C(C)C)C(=O)N[C@@H](Cc1ccccc1)C(=O)N[C@H](C(=O)N[C@@H](Cc1ccc(O)cc1)C(=O)NCC(=O)N[C@@H](CCC(=O)O)C(=O)N[C@@H](CC(C)C)C(=O)N[C@@H](CCC(N)=O)C(=O)N[C@@H](CCCNC(=N)N)C(=O)N[C@@H](CCSC)C(=O)N[C@@H](CCC(N)=O)C(=O)N[C@@H](CCC(=O)O)C(=O)N[C@@H](CCCCN)C(=O)N[C@@H](CCC(=O)O)C(=O)N[C@@H](CCCNC(=N)N)C(=O)N[C@@H](CC(N)=O)C(=O)N[C@@H](CCCCN)C(=O)NCC(=O)N[C@@H](CCC(N)=O)C(=O)O)[C@@H](C)O [motilin] | – | – | ~0.0005
